| melting point [°C] | Structure (SMILES) |
| --- | --- |
| 73 to 74 | O=C(CCCc1ccccc1)OCCCCCCCCCCCCNCC(O)c1ccccc1 (centres undefined) |
| 220 to 222 | S=C1NCC2(CC2)CN1 |
| 194 to 198 | CC(=O)Oc1ccc2c3c(cc(Cl)c2c1)-c1cc(F)c(OC(C)=O)cc1CO3 |
| 291 to 293 | CN1CC(=O)N2[C@H](c3ccc4occc4c3)c3[nH]c4ccccc4c3C[C@@H]2C1=O |
| 214 | CC(C)(C)c1ccc(NC(=O)c2cccc(C(OC(=O)Nc3ccc4[nH]ncc4c3)[C@@H]3CCCCN3)c2)cc1 (some centres undefined) |
| 98 to 100 | COc1ccc(C#N)cc1OC1COCC1OC (centres undefined) |
| 183 to 185 | NC(=O)N1c2ccccc2C=C(Cl)c2ccccc21 |
| 208 to 209 | O=C1NC(=O)c2c1c(-c1ccccc1Cl)cc1c2ccn1CCN1CCCC1 |
| 297 to 300 | O=C(O)Cc1ccc(Cc2n[nH]c3c2c(=O)n(-c2ccccc2)c2ncccc32)cc1 |
| 160 to 161 | CCC(O)CNC(=O)c1nn(C2CCCCO2)cc1NC(=O)c1ccccn1 (centres undefined) |
| 76 | CN(C)c1ccc(S(=O)(=O)n2c(CCCC(=O)O)cc3nc(Cl)ccc32)cc1 |
| 246 to 248 | Cc1cc(CNC(=O)c2nc3scc(COCc4ccc(C(=O)O)cc4)c3c(=O)[nH]2)ccc1F |
| 238 | O=C1N=C(N2CCOCC2)SC1=Cc1ccc(OC(F)(F)F)c(-c2cc(F)c(O)c(C34CC5CC(CC(C5)C3)C4)c2)c1 |
| 125 | CCC(C)N(C)C(=O)c1cc(-c2ccccc2)cc2ccccc12 (centres undefined) |
| 242 to 244 | CC(C)n1nc(-c2c(-c3ccccc3)nc(N)nc2-n2cnc3ccccc32)ccc1=O |
| 166 to 167 | CC1(CNCc2cc3cc(NC(=O)c4ccc(OCC5CC5)cc4)ccc3[nH]2)COC1 |
| 230 to 233 | Cc1cc(-c2ccc(Cl)cc2)nnc1Cl |
| 297 to 299 | CC1CC(=O)c2c(C(=O)Nc3ccc4c(c3)OC(C)(C)O4)c[nH]c2C1 (centres undefined) |

| melting point [°C] | Structure (SMILES) |
| --- | --- |
| 210 to 211 | Cc1nc(-c2cc3cccc(NS(=O)(=O)c4cccs4)c3[nH]2)sc1C |
| 106 to 108 | CCOC(=O)C(C(=O)C(C)C)C(c1ccc(F)cc1)c1ccccn1 (centres undefined) |
| 290 to 292 | COc1ccc(-c2cnc3[nH]cc(C(N)=O)c3n2)cc1OC |
| 86 to 88 | CCOC(=O)C(C)Oc1ccc(Sc2nnc3cc(Cl)ccc3n2)cc1 (centres undefined) |
| 79 to 81 | OCc1cccc(C=Cc2cccc(-c3ccsc3)c2)c1 |
| 187 to 189 | O=S(=O)(NCc1ccc(O)cc1)c1ccc(Cl)cc1 |
| 178 to 179 | O=C1N(Cc2ccc(-c3noc(C(F)(F)F)n3)cc2)c2ccccc2C12COc1cc3c(cc12)CCO3 (centres undefined) |
| 213 to 215 | N#CC(N)=C(C#N)N=Cc1cnn(-c2c(F)cc(F)cc2F)n1 |
| 120 to 122 | COC(=O)Nc1cc(-c2nccs2)[nH]c1C(CC1CCOCC1)c1ccc(S(=O)(=O)C2CC2)cc1 (centres undefined) |
| > 260 | CN1Cc2c(C(=O)NN)ncn2-c2ccsc2C1=O |
| 95 | CC1(O)CSC(=S)N1c1ccc(Cl)cn1 (centres undefined) |
| 261 to 263 | CCCOc1ccccc1-c1nc2nc(NC)nnc2c(=O)[nH]1 |
| 232 to 234 | COc1ccc2c(c1)CCC1CCNC(=O)C(CC(=O)O)=C21 (centres undefined) |
| 131 to 132 | CCOC(=O)c1cccc2nc(OCC)n(Cc3ccc(-c4ccccc4C#N)cc3)c12 |
| 100 | NC(=O)N(O)C[C@H]1C[C@@H](c2ccccc2)C1 |
| 162 to 164 | Cc1cccc(COc2nn3c(-c4ccccc4)nnc3cc2C23CCC(CC2)C3)n1 |
| 155 | C/C(=C\c1cccc2ccccc12)C(=O)O |
| > 95 | CN1CCC(CC(=O)N2c3ccccc3NC(=O)c3ccccc32)CC1 |

| Structure (SMILES) | melting point [°C] |
| --- | --- |
| O=[N+]([O-])c1cc(Br)cc(OCCF)c1 | 59 to 61 |
| NC(=O)OC[C@H]1NC(=O)[C@H]1NC(=O)OCc1ccccc1 | 192 to 193 |
| OC(COc1ccccc1Br)C(Cl)(Cl)Cl (centres undefined) | 88 to 90 |
